Test results reported in US20240409585A1, “MACROCYCLIC IMMUNOMODULATORS” (priority 2021, published 2024).
Bridge positions count the residues as written; N and C are the ends. Square brackets hold non-standard residues; d marks the D form. Peptide text beside a SMILES is read from it. * marks the point of attachment. ξ: configuration not given here. Phe(4-COOH) = N[C@@H](Cc1ccc(C(=O)O)cc1)C(=O)O; Bip = N[C@@H](Cc1ccc(-c2ccccc2)cc1)C(=O)O; Val(3-OH) = CC(C)(O)[C@H](N)C(=O)O; 4Pal = N[C@@H](Cc1ccncc1)C(=O)O; Cha = N[C@@H](CC1CCCCC1)C(=O)O; Ile(3ξ) = CCC(C)[C@H](N)C(=O)O; Tle = CC(C)(C)[C@H](N)C(=O)O; Carboxymethyl = O=C(O)C*; NMeA = CN[C@@H](C)C(=O)O; Dab = NCC[C@H](N)C(=O)O; ξN = NC(=O)CC(N)C(=O)O

Each molecule was assayed against T1, PE-labeled human PD-L1-Ig binding to Jurkat cell line over-expressing human PD-1 (Jurkat-PD-1) (Homo sapiens, UniProt Q15116) (assay: Jurkat-PD-1 Cell Binding High-Content Screening Assay (CBA): Method 1). Conditions: Jurkat-hPD-1 cells, PE-labeled PD-L1-Ig 20 nM final; read-out: Jurkat HPDL1 PD1 IC50 (uM) (Method 1).
T1 construct: expressed in transfected cells; host or cells: Jurkat
T1 sequence (Q15116 25-288): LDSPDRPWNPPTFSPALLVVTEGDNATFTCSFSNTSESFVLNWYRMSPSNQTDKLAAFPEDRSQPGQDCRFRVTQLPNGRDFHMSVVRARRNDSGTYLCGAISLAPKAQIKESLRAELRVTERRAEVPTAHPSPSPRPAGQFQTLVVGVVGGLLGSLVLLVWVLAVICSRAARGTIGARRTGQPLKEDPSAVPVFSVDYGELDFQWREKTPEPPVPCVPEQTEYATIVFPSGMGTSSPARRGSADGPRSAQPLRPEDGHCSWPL

Compound | IC50 [µM]
CC(C)C[C@@H]1NC(=O)[C@H](Cc2c[nH]c3ccccc23)NC(=O)[C@H](CC(=O)O)NC(=O)[C@H](Cc2ccncc2)NC(=O)[C@H](Cc2ccc(OCC(=O)O)cc2)NC(=O)CSC[C@@H](C(=O)N[C@@H](CCN)C(N)=O)NC(=O)[C@H](CO)NC(=O)[C@H](C(C)C)NC(=O)[C@H](CC2CCCCC2)NC(=O)[C@H](CCN)NC(=O)[C@@H](CC(C)C)NC(=O)[C@H](C)N(C)C(=O)[C@H](Cc2ccc(O)cc2)NC(=O)[C@H](Cc2ccc(-c3ccccc3)cc2)NC1=O [Compound 1908] ({CH2CO}-Y(Carboxymethyl)[4Pal]DWL[Bip]Y[NMeA][dL][Dab][Cha]VSC[Dab]-NH2; thioether N-14) | 0.04
CCC(C)[C@@H]1NC(=O)[C@H](Cc2ccc(-c3ccccc3)cc2)NC(=O)[C@H](CC(C)C)NC(=O)[C@H](Cc2c[nH]c3ccccc23)NC(=O)[C@H](CC(=O)O)NC(=O)[C@H](Cc2ccc(C(=O)O)cc2)NC(=O)[C@H](Cc2ccc(OCC(=O)O)cc2)NC(=O)CSC[C@@H](C(=O)N[C@@H](CCN)C(N)=O)NC(=O)[C@H](CO)NC(=O)[C@H](C(C)C)NC(=O)[C@H](CC2CCCCC2)NC(=O)[C@H](CCN)NC(=O)[C@@H](CC(C)C)NC(=O)[C@H](C)N(C)C1=O (stereo partly drawn) [Compound 1910] ({CH2CO}-Y(Carboxymethyl)[Phe(4-COOH)]DWL[Bip][Ile(3ξ)][NMeA][dL][Dab][Cha]VSC[Dab]-NH2; thioether N-14) | 0.02
CC(C)C[C@@H]1NC(=O)[C@H](Cc2c[nH]c3ccccc23)NC(=O)[C@H](CC(=O)O)NC(=O)[C@H](Cc2ccc(C(=O)O)cc2)NC(=O)[C@H](Cc2ccc(OCC(=O)O)cc2)NC(=O)CSC[C@@H](C(=O)NC(CC(N)=O)C(N)=O)NC(=O)[C@H](CO)NC(=O)[C@H](C(C)C)NC(=O)[C@H](CC2CCCCC2)NC(=O)[C@H](CCN)NC(=O)[C@@H](CC(C)C)NC(=O)[C@H](C)N(C)C(=O)[C@H](C(C)C)NC(=O)[C@H](Cc2ccc(-c3ccccc3)cc2)NC1=O (stereo partly drawn) [Compound 1912] ({CH2CO}-Y(Carboxymethyl)[Phe(4-COOH)]DWL[Bip]V[NMeA][dL][Dab][Cha]VSC[ξN]-NH2; thioether N-14) | 0.02
CC(C)C[C@@H]1NC(=O)[C@H](Cc2c[nH]c3ccccc23)NC(=O)[C@H](CC(=O)O)NC(=O)[C@H](Cc2ccc(C(=O)O)cc2)NC(=O)[C@H](Cc2ccc(OCC(=O)O)cc2)NC(=O)CSC[C@@H](C(=O)N[C@@H](CC(N)=O)C(N)=O)NC(=O)[C@H](CO)NC(=O)[C@H](C(C)(C)C)NC(=O)[C@H](CC2CCCCC2)NC(=O)[C@H](CCN)NC(=O)[C@@H](CC(C)C)NC(=O)[C@H](C)N(C)C(=O)[C@H](C(C)C)NC(=O)[C@H](Cc2ccc(-c3ccccc3)cc2)NC1=O [Compound 1914] ({CH2CO}-Y(Carboxymethyl)[Phe(4-COOH)]DWL[Bip]V[NMeA][dL][Dab][Cha][Tle]SCN-NH2; thioether N-14) | 0.01
CC(C)C[C@@H]1NC(=O)[C@H](Cc2c[nH]c3ccccc23)NC(=O)[C@H](CC(=O)O)NC(=O)[C@H](Cc2ccc(C(=O)O)cc2)NC(=O)[C@H](Cc2ccc(OCC(=O)O)cc2)NC(=O)CSC[C@@H](C(=O)N[C@@H](CC(N)=O)C(N)=O)NC(=O)[C@H](CO)NC(=O)[C@H](C(C)(C)O)NC(=O)[C@H](CC2CCCCC2)NC(=O)[C@H](CCN)NC(=O)[C@@H](CC(C)C)NC(=O)[C@H](C)N(C)C(=O)[C@H](C(C)C)NC(=O)[C@H](Cc2ccc(-c3ccccc3)cc2)NC1=O [Compound 1915] ({CH2CO}-Y(Carboxymethyl)[Phe(4-COOH)]DWL[Bip]V[NMeA][dL][Dab][Cha][Val(3-OH)]SCN-NH2; thioether N-14) | 0.01
CCC(C)[C@@H]1NC(=O)[C@H](Cc2ccc(-c3ccccc3)cc2)NC(=O)[C@H](CC(C)C)NC(=O)[C@H](Cc2c[nH]c3ccccc23)NC(=O)[C@H](CC(=O)O)NC(=O)[C@H](Cc2ccc(C(=O)O)cc2)NC(=O)[C@H](Cc2ccc(OCC(=O)O)cc2)NC(=O)CSC[C@@H](C(=O)N[C@@H](CC(N)=O)C(N)=O)NC(=O)[C@H](CO)NC(=O)[C@H](C(C)(C)O)NC(=O)[C@H](CC2CCCCC2)NC(=O)[C@H](CCN)NC(=O)[C@@H](CC(C)C)NC(=O)[C@H](C)N(C)C1=O (stereo partly drawn) [Compound 1916] ({CH2CO}-Y(Carboxymethyl)[Phe(4-COOH)]DWL[Bip][Ile(3ξ)][NMeA][dL][Dab][Cha][Val(3-OH)]SCN-NH2; thioether N-14) | 0.02
CCC(C)[C@@H]1NC(=O)[C@H](Cc2ccc(-c3ccccc3)cc2)NC(=O)[C@H](CC(C)C)NC(=O)[C@H](Cc2c[nH]c3ccccc23)NC(=O)[C@H](CC(=O)O)NC(=O)[C@H](Cc2ccc(C(=O)O)cc2)NC(=O)[C@H](Cc2ccc(OCC(=O)O)cc2)NC(=O)CSC[C@@H](C(=O)N[C@@H](CC(N)=O)C(N)=O)NC(=O)[C@H](CO)NC(=O)[C@H](C(C)C)NC(=O)[C@H](CC2CCCCC2)NC(=O)[C@H](CCN)NC(=O)[C@@H](CC(C)C)NC(=O)[C@H](C)N(C)C1=O (stereo partly drawn) [Compound 1917] ({CH2CO}-Y(Carboxymethyl)[Phe(4-COOH)]DWL[Bip][Ile(3ξ)][NMeA][dL][Dab][Cha]VSCN-NH2; thioether N-14) | 0.04

The remaining lines, values ahead:

IC50 [µM] | Compound
0.01 | CC(C)C[C@@H]1NC(=O)[C@H](Cc2c[nH]c3ccccc23)NC(=O)[C@H](CC(=O)O)NC(=O)[C@H](Cc2ccc(C(=O)O)cc2)NC(=O)[C@H](Cc2ccc(OCC(=O)O)cc2)NC(=O)CSC[C@@H](C(=O)N[C@@H](CCN)C(N)=O)NC(=O)[C@H](CO)NC(=O)[C@H](C(C)C)NC(=O)[C@H](CC2CCCCC2)NC(=O)[C@H](CCN)NC(=O)[C@@H](CC(C)C)NC(=O)[C@H](C)N(C)C(=O)[C@H](C(C)C)NC(=O)[C@H](Cc2ccc(-c3ccccc3)cc2)NC1=O [Compound 1909] ({CH2CO}-Y(Carboxymethyl)[Phe(4-COOH)]DWL[Bip]V[NMeA][dL][Dab][Cha]VSC[Dab]-NH2; thioether N-14)
0.01 | CC(C)C[C@@H]1NC(=O)[C@H](Cc2c[nH]c3ccccc23)NC(=O)[C@H](CC(=O)O)NC(=O)[C@H](Cc2ccc(C(=O)O)cc2)NC(=O)[C@H](Cc2ccc(OCC(=O)O)cc2)NC(=O)CSC[C@@H](C(=O)N[C@@H](CC(N)=O)C(N)=O)NC(=O)[C@H](CO)NC(=O)[C@H](C(C)C)NC(=O)[C@H](CC2CCCCC2)NC(=O)[C@H](CCN)NC(=O)[C@@H](CC(C)C)NC(=O)[C@H](C)N(C)C(=O)[C@H](C(C)C)NC(=O)[C@H](Cc2ccc(-c3ccccc3)cc2)NC1=O [Compound 1911] ({CH2CO}-Y(Carboxymethyl)[Phe(4-COOH)]DWL[Bip]V[NMeA][dL][Dab][Cha]VSCN-NH2; thioether N-14)
0.01 | CC(C)C[C@@H]1NC(=O)[C@H](Cc2c[nH]c3ccccc23)NC(=O)[C@H](CC(=O)O)NC(=O)[C@H](Cc2ccc(C(=O)O)cc2)NC(=O)[C@H](Cc2ccc(OCC(=O)O)cc2)NC(=O)CSC[C@@H](C(=O)N[C@@H](CO)C(N)=O)NC(=O)[C@H](CO)NC(=O)[C@H](C(C)C)NC(=O)[C@H](CC2CCCCC2)NC(=O)[C@H](CCN)NC(=O)[C@@H](CC(C)C)NC(=O)[C@H](C)N(C)C(=O)[C@H](C(C)C)NC(=O)[C@H](Cc2ccc(-c3ccccc3)cc2)NC1=O [Compound 1913] ({CH2CO}-Y(Carboxymethyl)[Phe(4-COOH)]DWL[Bip]V[NMeA][dL][Dab][Cha]VSCS-NH2; thioether N-14)
